Laboratory results as given in ChEMBL document CHEMBL3124778, “Structure-based design of new dihydrofolate reductase antibacterial agents: 7-(benzimidazol-1-yl)-2,4-diaminoquinazolines” (J Med Chem, 2014).
Values after ≈ are worked out from the molar mass of the structure shown.

Key:
Streptococcus pneumoniae [1] = assay: Antibacterial activity against Streptococcus pneumoniae ATCC 700674 after 18 to 24 hrs by alamar Blue assay; assay type: functional
Staphylococcus aureus [2] = assay: Antibacterial activity against Staphylococcus aureus ATCC 13709 after 18 to 24 hrs by alamar Blue assay; assay type: functional
Streptococcus pneumoniae [3] = assay: Antibacterial activity against Streptococcus pneumoniae ATCC 700671 after 18 to 24 hrs by alamar Blue assay; assay type: functional
Streptococcus pneumoniae [4] = assay: Antibacterial activity against Streptococcus pneumoniae after 18 to 24 hrs by alamar Blue assay; assay type: functional
Streptococcus pneumoniae [5] = assay: Antibacterial activity against Streptococcus pneumoniae ATCC 700677 after 18 to 24 hrs by alamar Blue assay; assay type: functional
Streptococcus pneumoniae [6] = assay: Antibacterial activity against Streptococcus pneumoniae ATCC 49619 after 18 to 24 hrs by alamar Blue assay; assay type: functional
Streptococcus pneumoniae [7] = assay: Antibacterial activity against Streptococcus pneumoniae ATCC BAA-255 after 18 to 24 hrs by alamar Blue assay; assay type: functional
Streptococcus pneumoniae [8] = assay: Antibacterial activity against Streptococcus pneumoniae ATCC 700675 after 18 to 24 hrs by alamar Blue assay; assay type: functional
Streptococcus pneumoniae [9] = assay: Antibacterial activity against Streptococcus pneumoniae ATCC 700676 after 18 to 24 hrs by alamar Blue assay; assay type: functional
Streptococcus pneumoniae [10] = assay: Antibacterial activity against Streptococcus pneumoniae ATCC 700669 after 18 to 24 hrs by alamar Blue assay; assay type: functional
[11] = Selectivity ratio of Ki for human DHFR to Ki for Staphylococcus aureus DHFR
Streptococcus pneumoniae [12] = assay: Antibacterial activity against Streptococcus pneumoniae ATCC 51916 after 18 to 24 hrs by alamar Blue assay; assay type: functional
Streptococcus pneumoniae [13] = assay: Antibacterial activity against Streptococcus pneumoniae ATCC 700904 after 18 to 24 hrs by alamar Blue assay; assay type: functional
Staphylococcus aureus [14] = assay: Antibacterial activity against TMP-resistant Staphylococcus aureus expressing DHFR F99Y mutant after 18 to 24 hrs by alamar Blue assay; assay type: functional
Dihydrofolate reductase [15] = target: T1, Dihydrofolate reductase (Homo sapiens, UniProt P00374); assay: Inhibition of human DHFR using dihydrofolate as substrate preincubated for 10 mins followed by substrate addition by spectrophotometric analysis in presence of NADPH
T1 sequence (P00374 whole entry): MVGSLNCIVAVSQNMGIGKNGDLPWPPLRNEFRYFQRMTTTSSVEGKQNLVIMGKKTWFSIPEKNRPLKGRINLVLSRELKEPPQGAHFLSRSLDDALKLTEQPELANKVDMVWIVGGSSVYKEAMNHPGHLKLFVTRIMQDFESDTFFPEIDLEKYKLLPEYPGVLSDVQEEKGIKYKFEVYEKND

Dihydrofolate reductase [16] = target: Dihydrofolate reductase (Staphylococcus aureus, UniProt P0A017); assay: Inhibition of Staphylococcus aureus DHFR using dihydrofolate as substrate preincubated for 10 mins followed by substrate addition by spectrophotometric analysis in presence of NADPH
Staphylococcus aureus [17] = assay: Antibacterial activity against Staphylococcus aureus ATCC 13709 after 18 to 24 hrs by alamar Blue assay in presence of 20% heat inactivated mouse serum; assay type: functional
Staphylococcus aureus [18] = assay: animal or person; details: ATCC 13709, in Mus musculus, iv, 24 h, read-out: PD50
Description: Antibacterial activity against Staphylococcus aureus ATCC 13709 infected in iv dosed BALB/c mouse septicemia model assessed as protection from lethal infection after 24 hrs

[19] = Apparent volume of distribution in BALB/c mouse at 5 mg/kg, iv; assay type: ADME, organism-based; parameters: dose 5 mg/kg, route intravenous; details: in vivo, read-out: Vz
Staphylococcus aureus [20] = assay: Ratio of iclaprim MIC to compound MIC for TMP-resistant Staphylococcus aureus expressing DHFR F99Y mutant; assay type: functional
[21] = AUClast in BALB/c mouse at 5 mg/kg, iv; assay type: ADME, organism-based; parameters: dose 5 mg/kg, route intravenous, time 0 - last; details: plasma
[22] = Terminal half life in BALB/c mouse at 5 mg/kg, iv; assay type: ADME, organism-based; parameters: dose 5 mg/kg, route intravenous; details: in vivo, read-out: beta t1/2 (converted)
[23] = Plasma concentration in BALB/c mouse at 5 mg/kg, iv measured at 2 mins by LC-MS/MS analysis; assay type: ADME, organism-based; parameters: dose 5 mg/kg, route intravenous
[24] = Total clearance in BALB/c mouse at 5 mg/kg, iv; assay type: ADME, organism-based; parameters: dose 5 mg/kg, route intravenous; details: in vivo

Chain of Dihydrofolate reductase (Staphylococcus aureus, UniProt P0A017) (P0A017 whole entry): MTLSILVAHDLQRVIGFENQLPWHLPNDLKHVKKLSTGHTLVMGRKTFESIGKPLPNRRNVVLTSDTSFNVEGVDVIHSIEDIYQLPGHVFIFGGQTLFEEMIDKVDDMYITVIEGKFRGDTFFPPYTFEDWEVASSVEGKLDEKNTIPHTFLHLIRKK

Cc1cc2nc(-c3nccs3)n(-c3cc4nc(N)nc(N)c4cc3Cl)c2cc1C
MIC (Streptococcus pneumoniae [1]): 4 µg/mL (≈ 9.48 µM) | MIC (Staphylococcus aureus [2]): 0.125 µg/mL (≈ 0.296 µM) | MIC (Streptococcus pneumoniae [3]): 4 µg/mL (≈ 9.48 µM) | MIC50 (Streptococcus pneumoniae [4]): ≤ 0.5 µg/mL | MIC90 (Streptococcus pneumoniae [4]): 4 µg/mL (≈ 9.48 µM) | MIC (Streptococcus pneumoniae [5]): ≤ 0.5 µg/mL | MIC (Streptococcus pneumoniae [6]): 0.125 µg/mL (≈ 0.296 µM) | MIC (Streptococcus pneumoniae [7]): ≤ 0.5 µg/mL | MIC (Streptococcus pneumoniae [8]): ≤ 0.5 µg/mL | MIC (Streptococcus pneumoniae [9]): ≤ 0.5 µg/mL | MIC (Streptococcus pneumoniae [10]): 4 µg/mL (≈ 9.48 µM) | Ratio Ki [11]: 690 | MIC (Streptococcus pneumoniae [12]): ≤ 0.5 µg/mL | MIC (Streptococcus pneumoniae [13]): 1 µg/mL (≈ 2.37 µM) | MIC (Staphylococcus aureus [14]): 0.25 µg/mL (≈ 0.593 µM)

Cc1cc2nc(-c3ccsc3)n(-c3ccc4c(N)nc(N)nc4c3)c2cc1C
MIC (Staphylococcus aureus [2]): 0.03 µg/mL (≈ 0.0776 µM) | MIC (Staphylococcus aureus [14]): 2 µg/mL (≈ 5.17 µM)

Cc1cc2nc(-c3cncn3C)n(-c3ccc4c(N)nc(N)nc4c3)c2cc1C
MIC (Staphylococcus aureus [2]): 4 µg/mL (≈ 10.4 µM) | Ki (Dihydrofolate reductase [15]): 2920 nM | Ki (Dihydrofolate reductase [16]): 1.1 nM | MIC (Staphylococcus aureus [17]): 32 µg/mL | MIC (Staphylococcus aureus [14]): 64 µg/mL (≈ 166 µM)

Cc1cc2nc(-c3ccoc3)n(-c3ccc4c(N)nc(N)nc4c3)c2cc1C
MIC (Staphylococcus aureus [2]): 0.06 µg/mL (≈ 0.162 µM) | Ki (Dihydrofolate reductase [15]): 723 nM | Ki (Dihydrofolate reductase [16]): 0.008 nM | Ratio Ki [11]: 90000 | MIC (Staphylococcus aureus [17]): 1 µg/mL | MIC (Staphylococcus aureus [14]): 2 µg/mL (≈ 5.4 µM)

Cc1cc2nc(-c3nccs3)n(-c3ccc4c(N)nc(N)nc4c3)c2cc1C
MIC (Streptococcus pneumoniae [1]): 8 µg/mL (≈ 20.6 µM) | MIC (Staphylococcus aureus [2]): 0.015 µg/mL (≈ 0.0387 µM) | MIC (Streptococcus pneumoniae [3]): 32 µg/mL (≈ 82.6 µM) | MIC50 (Streptococcus pneumoniae [4]): ≤ 0.5 µg/mL | MIC90 (Streptococcus pneumoniae [4]): 8 µg/mL (≈ 20.6 µM) | ED50 (Staphylococcus aureus [18]): 2 mg/kg | MIC (Streptococcus pneumoniae [5]): ≤ 0.5 µg/mL | Vd [19]: 4.4 L/kg | MIC (Streptococcus pneumoniae [6]): 0.25 µg/mL (≈ 0.645 µM) | Ratio (Staphylococcus aureus [20]): 8 | MIC (Streptococcus pneumoniae [7]): ≤ 0.5 µg/mL | AUC(0-t) [21]: 2400 ng·h/mL | MIC (Streptococcus pneumoniae [8]): ≤ 0.5 µg/mL | half-life [22]: 1.4 h | MIC (Streptococcus pneumoniae [9]): ≤ 0.5 µg/mL | concentration at 2 min [23]: 12700 ng/mL | MIC (Streptococcus pneumoniae [10]): 8 µg/mL (≈ 20.6 µM) | MIC (Streptococcus pneumoniae [12]): ≤ 0.5 µg/mL | clearance [24]: 35 mL/min/kg | MIC (Staphylococcus aureus [17]): 0.125 µg/mL | MIC (Streptococcus pneumoniae [13]): 4 µg/mL (≈ 10.3 µM) | MIC (Staphylococcus aureus [14]): 0.25 µg/mL (≈ 0.645 µM)

Cc1cc2nc(-c3cccn3C)n(-c3ccc4c(N)nc(N)nc4c3)c2cc1C
MIC (Staphylococcus aureus [2]): 8 µg/mL (≈ 20.9 µM) | Ki (Dihydrofolate reductase [15]): > 5000 nM | Ki (Dihydrofolate reductase [16]): 4 nM | MIC (Staphylococcus aureus [17]): 32 µg/mL | MIC (Staphylococcus aureus [14]): 64 µg/mL (≈ 167 µM)

COc1ccc(-c2nc3cc(C)c(C)cc3n2-c2ccc3c(N)nc(N)nc3c2)cc1
MIC (Staphylococcus aureus [2]): 2 µg/mL (≈ 4.87 µM) | Ki (Dihydrofolate reductase [15]): 2300 nM | Ki (Dihydrofolate reductase [16]): 0.34 nM | MIC (Staphylococcus aureus [17]): 8 µg/mL | MIC (Staphylococcus aureus [14]): > 64 µg/mL

COc1cc2nc(-c3ccco3)n(-c3cc4nc(N)nc(N)c4cc3Cl)c2cc1OC
MIC (Staphylococcus aureus [2]): 0.5 µg/mL (≈ 1.14 µM) | Ki (Dihydrofolate reductase [15]): 610 nM | Ki (Dihydrofolate reductase [16]): 0.024 nM | MIC (Staphylococcus aureus [17]): 0.5 µg/mL | MIC (Staphylococcus aureus [14]): 8 µg/mL (≈ 18.3 µM)

Cc1cc2nc(-c3ccccn3)n(-c3ccc4c(N)nc(N)nc4c3)c2cc1C
MIC (Staphylococcus aureus [2]): 0.125 µg/mL (≈ 0.328 µM) | Ratio Ki [11]: 26000 | MIC (Staphylococcus aureus [14]): 4 µg/mL (≈ 10.5 µM)

Cc1cc2nc(N3CCOCC3)n(-c3ccc4c(N)nc(N)nc4c3)c2cc1C
MIC (Staphylococcus aureus [14]): > 64 µg/mL

CN(Cc1cnc2nc(N)nc(N)c2n1)c1ccc(C(=O)N[C@@H](CCC(=O)O)C(=O)O)cc1 [METHOTREXATE]
MIC (Staphylococcus aureus [2]): > 64 µg/mL

Cc1cc2nc(C3CC3)n(-c3ccc4c(N)nc(N)nc4c3)c2cc1C
MIC (Staphylococcus aureus [2]): 0.5 µg/mL (≈ 1.45 µM) | MIC (Staphylococcus aureus [14]): 8 µg/mL (≈ 23.2 µM)

COc1cc(Cc2cnc(N)nc2N)c2c(c1OC)OC(C1CC1)C=C2 (stereo not drawn)
MIC (Streptococcus pneumoniae [1]): 8 µg/mL (≈ 22.6 µM) | MIC (Staphylococcus aureus [2]): 0.125 µg/mL (≈ 0.353 µM) | MIC (Streptococcus pneumoniae [3]): 16 µg/mL (≈ 45.1 µM) | MIC50 (Streptococcus pneumoniae [4]): ≤ 0.5 µg/mL | MIC90 (Streptococcus pneumoniae [4]): 8 µg/mL (≈ 22.6 µM) | MIC (Streptococcus pneumoniae [5]): ≤ 0.5 µg/mL | MIC (Streptococcus pneumoniae [6]): 0.125 µg/mL (≈ 0.353 µM) | MIC (Streptococcus pneumoniae [7]): ≤ 0.5 µg/mL | MIC (Streptococcus pneumoniae [8]): ≤ 0.5 µg/mL | MIC (Streptococcus pneumoniae [9]): ≤ 0.5 µg/mL | MIC (Streptococcus pneumoniae [10]): 8 µg/mL (≈ 22.6 µM) | MIC (Streptococcus pneumoniae [12]): 1 µg/mL (≈ 2.82 µM) | MIC (Staphylococcus aureus [17]): 0.125 µg/mL | MIC (Streptococcus pneumoniae [13]): 4 µg/mL (≈ 11.3 µM)

Cc1cc2nc(-c3cccs3)n(-c3cc4nc(N)nc(N)c4cc3Cl)c2cc1C
MIC (Streptococcus pneumoniae [1]): > 64 µg/mL | MIC (Staphylococcus aureus [2]): 0.03 µg/mL (≈ 0.0713 µM) | Ki (Dihydrofolate reductase [15]): > 3000 nM | MIC (Streptococcus pneumoniae [3]): > 64 µg/mL | MIC50 (Streptococcus pneumoniae [4]): 1 µg/mL (≈ 2.38 µM) | MIC90 (Streptococcus pneumoniae [4]): > 64 µg/mL | MIC (Streptococcus pneumoniae [5]): 0.25 µg/mL (≈ 0.594 µM) | MIC (Streptococcus pneumoniae [6]): 0.5 µg/mL (≈ 1.19 µM) | MIC (Streptococcus pneumoniae [7]): ≤ 0.125 µg/mL | MIC (Streptococcus pneumoniae [8]): 1 µg/mL (≈ 2.38 µM) | MIC (Streptococcus pneumoniae [9]): 0.25 µg/mL (≈ 0.594 µM) | Ki (Dihydrofolate reductase [16]): 0.01 nM | MIC (Streptococcus pneumoniae [10]): 2 µg/mL (≈ 4.75 µM) | MIC (Streptococcus pneumoniae [12]): 1 µg/mL (≈ 2.38 µM) | MIC (Staphylococcus aureus [17]): 1 µg/mL | MIC (Streptococcus pneumoniae [13]): 4 µg/mL (≈ 9.5 µM) | MIC (Staphylococcus aureus [14]): 4 µg/mL (≈ 9.5 µM)

Cc1cc2nc(-c3ccco3)n(-c3ccc4c(N)nc(N)nc4c3)c2cc1C
MIC (Staphylococcus aureus [2]): 0.015 µg/mL (≈ 0.0405 µM) | Ki (Dihydrofolate reductase [15]): 943 nM | Ki (Dihydrofolate reductase [16]): 0.007 nM | MIC (Staphylococcus aureus [17]): 0.125 µg/mL | MIC (Staphylococcus aureus [14]): 1 µg/mL (≈ 2.7 µM)
